Measured values as given in patent US20240148821A1, “PHARMACEUTICAL USE OF CYCLIC PEPTIDE COMPOUND” (CHUGAI SEIYAKU KABUSHIKI KAISHA, priority 2021, published 2024).
Numbered stars: 1 amine (or outer) side, 2 acyl side, 3 side chain; on linkers, the order of the positions; unused ones are H or OH. Bridge positions count the residues as written; N and C are the ends. Square brackets hold non-standard residues; d marks the D form. Peptide text beside a SMILES is read from it. * marks the point of attachment. hPhe(3-Cl-4-CF3) = N[C@@H](CCc1ccc(C(F)(F)F)c(Cl)c1)C(=O)O; hPhe(3-F,4-CF3) = N[C@@H](CCc1ccc(C(F)(F)F)c(F)c1)C(=O)O; NMeGly(cPent) = CN[C@H](C(=O)O)C1CCCC1; Phe(3-I) = N[C@@H](Cc1cccc(I)c1)C(=O)O; mXylylene = c1cc(C[*:1])cc(C[*:2])c1; NMeY = CN[C@@H](Cc1ccc(O)cc1)C(=O)O; NMeCha = CN[C@@H](CC1CCCCC1)C(=O)O; cisHyp = O=C(O)[C@@H]1C[C@H](O)CN1; Hyp = O=C(O)[C@@H]1C[C@@H](O)CN1; NMeChg = CN[C@H](C(=O)O)C1CCCCC1; NMeE = CN[C@@H](CCC(=O)O)C(=O)O; NMeD = CN[C@@H](CC(=O)O)C(=O)O; NMeL = CN[C@@H](CC(C)C)C(=O)O; Morpholide = C1CN(*)CCO1; NMeA = CN[C@@H](C)C(=O)O; Nle = CCCC[C@H](N)C(=O)O; Piperidide = C1CCN(*)CC1; Ac5c = NC1(C(=O)O)CCCC1; Aze = O=C(O)[C@@H]1CCN1; Ethyl(2,2-F2) = FC(F)C*; Ethyl(2-OH) = OCC*; X14 = c1cc(C*)cs1; X9 = c1cncc(C*)c1; Sar = CNCC(=O)O

Molecular target: protein-protein interaction between Kras and SOS1 (biotin-tagged human Kras loaded with GDP, His-tagged human SOS1) (Homo sapiens (Human), UniProt P01116, G12D)
Test: Protein-protein interaction inhibition between Kras and SOS1 (KrasG12D-SOS PPI) using AlphaScreen;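 note: kras produced in E. coli, Ni-coupled donor beads and streptavidin acceptor beads, excitation 680 nm with emission detected at 520–620 nm via singlet oxygen transfer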
Assay type: biochemical
Conditions: not given

Row | IC50 [nM] | Structure (SMILES)
1 | 1.8 | CC[C@H](C)[C@@H]1NC(=O)[C@H](CC(C)C)N(C)C(=O)C[C@@H](C(=O)N(C)C)N(C)C(=O)[C@H](C2CCCC2)N(C)C(=O)C2(CCCC2)NC(=O)[C@H](CC(=O)N2CCOCC2)N(C)C(=O)[C@H](CCc2ccc(C(F)(F)F)c(Cl)c2)NC(=O)CN(C)C(=O)[C@H](CC2CCCCC2)N(C)C(=O)[C@@H]2CCN2C(=O)[C@H](C)N(C)C1=O [Compound 2109] ([NMeL]I[NMeA][Aze][NMeCha][Sar][hPhe(3-Cl-4-CF3)][NMeD](Morpholide)[Ac5c][NMeGly(cPent)][NMeD]-NMe2; lactam N-11)

Same assay, conditions: AlphaScreen; biotin-tagged human Kras loaded with GDP, His-tagged human SOS1; read-out: KRAS G12D-SOS PPI IC50

Row | Structure (SMILES) | IC50 [nM]
2 | CC[C@H](C)[C@@H]1NC(=O)[C@H](CC(C)C)N(C)C(=O)C[C@@H](C(=O)N2CCOCC2)N(C)C(=O)[C@H](C2CCCC2)N(C)C(=O)C2(CCCC2)NC(=O)[C@H](CCC(=O)N(C)C)N(C)C(=O)[C@H](CCc2ccc(C(F)(F)F)c(Cl)c2)NC(=O)CN(C)C(=O)[C@H](CC2CCCCC2)N(C)C(=O)[C@@H]2CCN2C(=O)[C@H](C)N(C)C1=O [Compound 2108, 3-[(3S,6S,9S,13S,16S,22S,25S,31S,34S)-25-[2-[3-chloro-4-(trifluoromethyl)phenyl]ethyl]-31-(cyclohexylmethyl)-16-cyclopentyl-9-isobutyl-3,4,10,14,17,23,29,32-octamethyl-6-[(1S)-1-methylpropyl]-13-(morpholine-4-carbonyl)-2,5,8,11,15,18,21,24,27,30,33-undecaoxo-spiro[1,4,7,10,14,17,20,23,26,29,32-undecazabicyclo[32.2.0]hexatriacontane-19,1′-cyclopentane]-22-yl]-N,N-dimethyl-propanamide] ([NMeL]I[NMeA][Aze][NMeCha][Sar][hPhe(3-Cl-4-CF3)][NMeE](NMe2)[Ac5c][NMeGly(cPent)][NMeD]-Morpholide; lactam N-11) | 7.9
3 | CCCC[C@@H]1NC(=O)[C@H](Cc2cccc(I)c2)NC(=O)CN(C)C(=O)[C@H](Cc2ccc(OC)cc2)N(C)C(=O)[C@@H]2CCN2C(=O)[C@H](C)N(C)C(=O)[C@H]([C@@H](C)CC)NC(=O)[C@H](CC(C)C)N(C)C(=O)C[C@@H](C(=O)N2CCCCC2)N(C)C(=O)[C@H](CC(C)C)NC(=O)[C@H](CCC(=O)N(C)C)N(C)C1=O [Compound 2110, 3-[(3S,6S,9S,13S,16S,19S,22S,25S,31S,34S)-22-butyl-25-[(3-iodophenyl)methyl]-9,16-diisobutyl-31-[(4-methoxyphenyl)methyl]-3,4,10,14,20,29,32-heptamethyl-6-[(1S)-1-methylpropyl]-2,5,8,11,15,18,21,24,27,30,33-undecaoxo-13-(piperidine-1-carbonyl)-1,4,7,10,14,17,20,23,26,29,32-undecazabicyclo[32.2.0]hexatriacontan-19-yl]-N,N-dimethyl-propanamide] ([NMeL]I[NMeA][Aze][NMeY](Me)[Sar][Phe(3-I)][Nle][NMeE](NMe2)L[NMeD]-Piperidide; lactam N-11) | 9.8
4 | CC[C@H](C)[C@@H]1NC(=O)[C@H](CC(C)C)N(C)C(=O)C[C@@H](C(=O)N2CCOCC2)N(C)C(=O)[C@H](C2CCCC2)N(C)C(=O)C2(CCCC2)NC(=O)[C@H](CCC(=O)N2CCCCC2)N(C)C(=O)[C@H](CCc2ccc(C(F)(F)F)c(Cl)c2)NC(=O)CN(C)C(=O)[C@H](CC2CCCCC2)N(C)C(=O)[C@@H]2CCN2C(=O)[C@H](C)N(C)C1=O [Compound 2112] ([NMeL]I[NMeA][Aze][NMeCha][Sar][hPhe(3-Cl-4-CF3)][NMeE](Piperidide)[Ac5c][NMeGly(cPent)][NMeD]-Morpholide; lactam N-11) | 11
5 | CC[C@H](C)[C@@H]1NC(=O)[C@H](CC(C)C)N(C)C(=O)C[C@@H](C(=O)N2CCCCC2)N(C)C(=O)[C@H](CC(C)C)NC(=O)C(C)(C)N(C)C(=O)[C@H](COc2ccccc2)NC(=O)[C@H](Cc2cccc(I)c2)NC(=O)CN(C)C(=O)[C@H](Cc2ccc(C)cc2)N(C)C(=O)[C@@H]2CCN2C(=O)CN(C)C1=O [Compound 2114, (6S,9S,13S,16S,22S,25S,31S,34S)-25-[(3-iodophenyl)methyl]-9,16-diisobutyl-4,10,14,19,19,20,29,32-octamethyl-6-[(1S)-1-methylpropyl]-22-(phenoxymethyl)-13-(piperidine-1-carbonyl)-31-(p-tolylmethyl)-1,4,7,10,14,17,20,23,26,29,32-undecazabicyclo[32.2.0]hexatriacontane-2,5,8,11,15,18,21,24,27,30,33-undecone] | 110
6 | CC[C@H](C)[C@@H]1NC(=O)[C@H](CC(C)C)N(C)C(=O)C[C@@H](C(=O)N2CCCCC2)N(C)C(=O)[C@H](C2CCCCC2)N(C)C(=O)C2(CCCC2)NC(=O)[C@@H]2C[C@H](OCCO)CN2C(=O)[C@H](CCc2ccc(C(F)(F)F)c(Cl)c2)NC(=O)CN(C)C(=O)[C@H](CC2CCCCC2)N(C)C(=O)CN(C)C(=O)CN(C)C1=O [Compound 2117, (3S,9S,18S,21S,25S,28S,34S,36S)-3-[2-[3-chloro-4-(trifluoromethyl)phenyl]ethyl]-28-cyclohexyl-9-(cyclohexylmethyl)-36-(2-hydroxyethoxy)-21-isobutyl-7,10,13,16,22,26,29-heptamethyl-18-[(1S)-1-methylpropyl]-25-(piperidine-1-carbonyl)spiro[1,4,7,10,13,16,19,22,26,29,32-undecazabicyclo[32.3.0]heptatriacontane-31,1′-cyclopentane]-2,5,8,11,14,17,20,23,27,30,33-undecone] ([NMeL]I[Sar][Sar][NMeCha][Sar][hPhe(3-Cl-4-CF3)][cisHyp](Ethyl(2-OH))[Ac5c][NMeChg][NMeD]-Piperidide; lactam N-11) | 0.41
7 | CC[C@H](C)[C@@H]1NC(=O)[C@H](CC(C)C)N(C)C(=O)C[C@@H](C(=O)N2CCCCC2)N(C)C(=O)[C@H](C2CCCCC2)N(C)C(=O)C2(CCCC2)NC(=O)[C@@H]2C[C@@H](OCC(F)F)CN2C(=O)[C@H](CCc2ccc(C(F)(F)F)c(Cl)c2)NC(=O)CN(C)C(=O)[C@H](CC2CCCCC2)N(C)C(=O)CN(C)C(=O)CN(C)C1=O [Compound 2119] ([NMeL]I[Sar][Sar][NMeCha][Sar][hPhe(3-Cl-4-CF3)][Hyp](Ethyl(2,2-F2))[Ac5c][NMeChg][NMeD]-Piperidide; lactam N-11) | 0.39
8 | CC[C@H](C)[C@@H]1NC(=O)[C@H](CC(C)C)N(C)C(=O)C[C@@H](C(=O)N2CCCCC2)N(C)C(=O)[C@H](C2CCCCC2)N(C)C(=O)C2(CCCC2)NC(=O)[C@@H]2C[C@H](OCc3cccnc3)CN2C(=O)[C@H](CCc2ccc(C(F)(F)F)c(Cl)c2)NC(=O)CN(C)C(=O)[C@H](CC2CCCCC2)N(C)C(=O)CN(C)C(=O)CN(C)C1=O [Compound 2120] ([NMeL]I[Sar][Sar][NMeCha][Sar][hPhe(3-Cl-4-CF3)][cisHyp](X9)[Ac5c][NMeChg][NMeD]-Piperidide; lactam N-11) | 1
9 | CC[C@H](C)[C@@H]1NC(=O)[C@H](CC(C)C)N(C)C(=O)C[C@@H](C(=O)N2CCCCC2)N(C)C(=O)[C@H](C2CCCCC2)N(C)C(=O)C2(CCCC2)NC(=O)[C@@H]2C[C@@H](OCc3cccnc3)CN2C(=O)[C@H](CCc2ccc(C(F)(F)F)c(Cl)c2)NC(=O)CN(C)C(=O)[C@H](CC2CCCCC2)N(C)C(=O)CN(C)C(=O)CN(C)C1=O [Compound 2121] ([NMeL]I[Sar][Sar][NMeCha][Sar][hPhe(3-Cl-4-CF3)][Hyp](X9)[Ac5c][NMeChg][NMeD]-Piperidide; lactam N-11) | 0.56
10 | CC[C@H](C)[C@@H]1NC(=O)[C@H](CC(C)C)N(C)C(=O)C[C@@H](C(=O)N2CCCCC2)N(C)C(=O)[C@H](C2CCCCC2)N(C)C(=O)C2(CCCC2)NC(=O)[C@@H]2C[C@@H](OCCO)CN2C(=O)[C@H](CCc2ccc(C(F)(F)F)c(Cl)c2)NC(=O)CN(C)C(=O)[C@H](CC2CCCCC2)N(C)C(=O)CN(C)C(=O)CN(C)C1=O [Compound 2122, (3S,9S,18S,21S,25S,28S,34S,36R)-3-[2-[3-chloro-4-(trifluoromethyl)phenyl]ethyl]-28-cyclohexyl-9-(cyclohexylmethyl)-36-(2-hydroxyethoxy)-21-isobutyl-7,10,13,16,22,26,29-heptamethyl-18-[(1S)-1-methylpropyl]-25-(piperidine-1-carbonyl)spiro[1,4,7,10,13,16,19,22,26,29,32-undecazabicyclo[32.3.0]heptatriacontane-31,1′-cyclopentane]-2,5,8,11,14,17,20,23,27,30,33-undecone] ([NMeL]I[Sar][Sar][NMeCha][Sar][hPhe(3-Cl-4-CF3)][Hyp](Ethyl(2-OH))[Ac5c][NMeChg][NMeD]-Piperidide; lactam N-11) | 0.46
11 | CC[C@H](C)[C@@H]1NC(=O)[C@H](CC(C)C)N(C)C(=O)C[C@@H](C(=O)N2CCCCC2)N(C)C(=O)[C@H](C2CCCCC2)N(C)C(=O)C2(CCCC2)NC(=O)[C@@H]2C[C@H](OCC(F)F)CN2C(=O)[C@H](CCc2ccc(C(F)(F)F)c(Cl)c2)NC(=O)CN(C)C(=O)[C@H](CC2CCCCC2)N(C)C(=O)CN(C)C(=O)CN(C)C1=O [Compound 2123] ([NMeL]I[Sar][Sar][NMeCha][Sar][hPhe(3-Cl-4-CF3)][cisHyp](Ethyl(2,2-F2))[Ac5c][NMeChg][NMeD]-Piperidide; lactam N-11) | 1.5
12 | CC[C@H](C)[C@@H]1NC(=O)[C@H](CC(C)C)N(C)C(=O)C[C@@H](C(=O)N2CCCCC2)N(C)C(=O)[C@H](C2CCCCC2)N(C)C(=O)C2(CCCC2)NC(=O)[C@@H]2C[C@@H](OCc3ccsc3)CN2C(=O)[C@H](CCc2ccc(C(F)(F)F)c(Cl)c2)NC(=O)CN(C)C(=O)[C@H](CC2CCCCC2)N(C)C(=O)CN(C)C(=O)CN(C)C1=O [Compound 2124] ([NMeL]I[Sar][Sar][NMeCha][Sar][hPhe(3-Cl-4-CF3)][Hyp](X14)[Ac5c][NMeChg][NMeD]-Piperidide; lactam N-11) | 0.91
13 | CC[C@H](C)[C@@H]1NC(=O)[C@H](CC(C)C)N(C)C(=O)C[C@@H](C(=O)N2CCCCC2)N(C)C(=O)[C@H](CC(C)C)N(C)C(=O)C2(CCCC2)NC(=O)[C@@H]2C[C@@H](OCc3cccc(C)c3)CN2C(=O)[C@H](CCc2ccc(C(F)(F)F)c(F)c2)NC(=O)CN(C)C(=O)[C@H](CC2CCCCC2)N(C)C(=O)CN(C)C(=O)CN(C)C1=O [Compound 2125] ([NMeL]I[Sar][Sar][NMeCha][Sar][hPhe(3-F,4-CF3)][Hyp](mXylylene)[Ac5c][NMeL][NMeD]-Piperidide; lactam N-11) | 16
